This is an account of results in patent US9556179B2 (BRISTOL-MYERS SQUIBB COMPANY, priority 2012, dated 2017).

One assay concerns the target CK1δ (Homo sapiens (Human), UniProt P48730). As to the kind of experiment: CK1δ kinase assay (Caliper LABCHIP electrophoretic separation of fluoresceinated peptide substrate and product). It is filed as biochemical. Particulars: 200 pM enzyme, 50 μM ATP, 22 hours at room temperature. Summed up:
(§1)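 Compounds, taken from 10 mM DMSO stocks, are titrated at eleven concentrations. Kinase reactions proceed for 22 hours at room temperature and are quenched with EDTA. Substrate and product are resolved electrophoretically, and IC50 values are fitted by non-linear regression.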

Another assay addresses CK1ε (Homo sapiens (Human), UniProt P49674). Kind of assay: CK1ε kinase assay (Caliper LABCHIP electrophoretic separation of fluoresceinated peptide substrate and product). Particulars: 200 pM enzyme, 50 μM ATP, 22 hours at room temperature. It is filed as biochemical. The essentials:
as §1

CK1δ, sequence (P48730 whole entry): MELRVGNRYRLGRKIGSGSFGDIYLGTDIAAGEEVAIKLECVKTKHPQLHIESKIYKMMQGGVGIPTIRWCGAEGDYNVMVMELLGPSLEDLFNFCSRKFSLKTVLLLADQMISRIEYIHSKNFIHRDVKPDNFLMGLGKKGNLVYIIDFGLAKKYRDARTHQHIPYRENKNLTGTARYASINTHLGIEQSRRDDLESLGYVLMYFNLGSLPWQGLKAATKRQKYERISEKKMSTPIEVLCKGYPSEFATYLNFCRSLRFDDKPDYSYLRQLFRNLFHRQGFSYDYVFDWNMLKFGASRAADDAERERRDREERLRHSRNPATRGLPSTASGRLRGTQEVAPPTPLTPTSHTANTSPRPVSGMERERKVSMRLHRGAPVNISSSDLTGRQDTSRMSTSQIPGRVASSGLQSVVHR
CK1ε, sequence (P49674 whole entry): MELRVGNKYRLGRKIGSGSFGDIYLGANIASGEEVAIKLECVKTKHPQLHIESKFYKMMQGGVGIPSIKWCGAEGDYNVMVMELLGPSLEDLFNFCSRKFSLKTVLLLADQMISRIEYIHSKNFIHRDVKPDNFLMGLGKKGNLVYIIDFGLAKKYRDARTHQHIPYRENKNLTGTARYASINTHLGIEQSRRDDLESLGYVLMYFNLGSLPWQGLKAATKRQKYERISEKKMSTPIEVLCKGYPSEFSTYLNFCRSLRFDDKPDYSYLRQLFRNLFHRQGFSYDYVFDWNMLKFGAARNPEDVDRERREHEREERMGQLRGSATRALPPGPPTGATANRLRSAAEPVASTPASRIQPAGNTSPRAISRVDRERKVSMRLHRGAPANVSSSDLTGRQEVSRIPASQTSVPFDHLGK

With `O=C(Nc1cn2nc(-c3c(-c4ccc(F)cc4)ncn3C3CCN(C(=O)c4ccon4)CC3)ccc2n1)c1cncs1` [Compound 116, N-(6-(4-(4-fluorophenyl)-1-(1-(isoxazole-3-carbonyl)piperidin-4-yl)-1H-imidazol-5-yl)imidazo[1,2-b]pyridazin-2-yl)thiazole-5-carboxamide], the IC50 is 0.173 nM at CK1δ and 0.372 nM against CK1ε.
In the same order, the values of `O=C(Nc1cn2nc(-c3c(-c4ccc(F)cc4)ncn3C3CCN(C(=O)CC(F)(F)F)CC3)ccc2n1)c1cncs1` [Compound 117, N-(6-(4-(4-fluorophenyl)-1-(1-(3,3,3-trifluoropropanoyl)piperidin-4-yl)-1H-imidazol-5-yl)imidazo[1,2-b]pyridazin-2-yl)thiazole-5-carboxamide] are 0.175 nM and 0.424 nM.
Taken in the same sequence, the figures for `O=C(Nc1cn2nc(-c3c(-c4ccc(F)cc4)ncn3C3CCN(C[C@H](O)C(F)(F)F)CC3)ccc2n1)c1cncs1` [Compound 118, (S)—N-(6-(4-(4-fluorophenyl)-1-(1-(3,3,3-trifluoro-2-hydroxypropyl)piperidin-4-yl)-1H-imidazol-5-yl)imidazo[1,2-b]pyridazin-2-yl)thiazole-5-carboxamide] were 0.194 nM and 0.182 nM.
As for `O=C(Nc1cn2nc(-c3c(-c4ccc(F)cc4)nc(C4CC4)n3C3CCNCC3)ccc2n1)c1ccnc(F)c1` [Compound 119, N-(6-(2-cyclopropyl-4-(4-fluorophenyl)-1-(piperidin-4-yl)-1H-imidazol-5-yl)imidazo[1,2-b]pyridazin-2-yl)-2-fluoroisonicotinamide], the concentration for half-maximal inhibition (IC50) against CK1δ was 1.21 nM; on CK1ε it was 8.27 nM.
Take `COCCN1CCC(n2c(C3CC3)nc(-c3ccc(F)cc3)c2-c2ccc3nc(NC(=O)c4ccnc(F)c4)cn3n2)CC1` [Compound 120, N-(6-(2-cyclopropyl-4-(4-fluorophenyl)-1-(1-(2-methoxyethyl)piperidin-4-yl)-1H-imidazol-5-yl)imidazo[1,2-b]pyridazin-2-yl)-2-fluoroisonicotinamide]: the concentration for half-maximal inhibition (IC50) was determined as 1.52 nM on CK1δ and 16.7 nM at CK1ε.
As to `NC(=O)CN1CCC(n2c(C3CC3)nc(-c3ccc(F)cc3)c2-c2ccc3nc(NC(=O)c4ccnc(F)c4)cn3n2)CC1` [Compound 121, N-(6-(1-(1-(2-amino-2-oxoethyl)piperidin-4-yl)-2-cyclopropyl-4-(4-fluorophenyl)-1H-imidazol-5-yl)imidazo [1,2-b]pyridazin-2-yl)-2-fluoroisonicotinamide], the IC50 on CK1δ was found to be 0.489 nM; against CK1ε, 10.8 nM.
`N#CCCN1CCC(n2c(C3CC3)nc(-c3ccc(F)cc3)c2-c2ccc3nc(NC(=O)c4ccnc(F)c4)cn3n2)CC1` [Compound 122, N-(6-(1-(1-(2-cyanoethyl)piperidin-4-yl)-2-cyclopropyl-4-(4-fluorophenyl)-1H-imidazol-5-yl)imidazo[1,2-b]pyridazin-2-yl)-2-fluoroisonicotinamide]: the half-maximal inhibitory concentration (IC50) against CK1δ came to 0.446 nM; against CK1ε, 2.86 nM.
For the molecule `O=C(Nc1cn2nc(-c3c(-c4ccc(F)cc4)nc(C4CC4)n3C3CCN(c4ccncc4)CC3)ccc2n1)c1ccnc(F)c1` [Compound 123, N-(6-(2-cyclopropyl-4-(4-fluorophenyl)-1-(1-(pyridin-4-yl)piperidin-4-yl)-1H-imidazol-5-yl)imidazo[1,2-b]pyridazin-2-yl)-2-fluoroisonicotinamide], the results for the IC50 on CK1δ and against CK1ε were 2.86 nM and 16.7 nM, respectively.
As to `O=C(Nc1cn2nc(-c3c(-c4ccc(F)cc4)nc(C4CC4)n3C3CCN(S(=O)(=O)C4CC4)CC3)ccc2n1)c1ccnc(F)c1` [Compound 124, N-(6-(2-cyclopropyl-1-(1-(cyclopropylsulfonyl)piperidin-4-yl)-4-(4-fluorophenyl)-1H-imidazol-5-yl)imidazo[1,2-b]pyridazin-2-yl)-2-fluoroisonicotinamide], the IC50 at CK1δ is 3.72 nM; on CK1ε it was 27.1 nM.
Taken in the same sequence, the figures for `O=C(Nc1cn2nc(-c3c(-c4ccc(F)cc4)nc(C4CC4)n3C3CCN(C(=O)Nc4ccncc4)CC3)ccc2n1)c1ccnc(F)c1` [Compound 125, N-(6-(2-cyclopropyl-4-(4-fluorophenyl)-1-(1-(pyridin-4-ylcarbamoyl)piperidin-4-yl)-1H-imidazol-5-yl)imidazo[1,2-b]pyridazin-2-yl)-2-fluoroisonicotinamide] were 0.95 nM and 6.03 nM.
Taken in the same sequence, the figures for `O=C(Nc1cn2nc(-c3c(-c4ccc(F)cc4)nc(C4CC4)n3C3CCN(C(=O)c4ccon4)CC3)ccc2n1)c1ccnc(F)c1` [Compound 126, N-(6-(2-cyclopropyl-4-(4-fluorophenyl)-1-(1-(isoxazole-3-carbonyl)piperidin-4-yl)-1H-imidazol-5-yl)imidazo[1,2-b]pyridazin-2-yl)-2-fluoroisonicotinamide] were 1.66 nM and 9.02 nM.
In the same order, the values of `O=C(Nc1cn2nc(-c3c(-c4ccc(F)cc4)nc(C4CC4)n3C3CCN(C(=O)CC(F)(F)F)CC3)ccc2n1)c1ccnc(F)c1` [Compound 127, N-(6-(2-cyclopropyl-4-(4-fluorophenyl)-1-(1-(3,3,3-trifluoropropanoyl)piperidin-4-yl)-1H-imidazol-5-yl)imidazo [1,2-b]pyridazin-2-yl)-2-fluoroisonicotinamide] are 1.75 nM and 10.1 nM.
Take `O=C(Nc1cn2nc(-c3c(-c4ccc(F)cc4)nc(C4CC4)n3C3CCN(Cc4ccon4)CC3)ccc2n1)c1ccnc(F)c1` [Compound 128, N-(6-(2-cyclopropyl-4-(4-fluorophenyl)-1-(1-(isoxazol-3-ylmethyl)piperidin-4-yl)-1H-imidazol-5-yl)imidazo[1,2-b]pyridazin-2-yl)-2-fluoroisonicotinamide]: the half-maximal inhibitory concentration (IC50) came out at 0.301 nM against CK1δ and 6.41 nM at CK1ε.
In the same order, the values of `Cn1nccc1CN1CCC(n2c(C3CC3)nc(-c3ccc(F)cc3)c2-c2ccc3nc(NC(=O)c4ccnc(F)c4)cn3n2)CC1` [Compound 129, N-(6-(2-cyclopropyl-4-(4-fluorophenyl)-1-(1-((1-methyl-1H-pyrazol-5-yl)methyl)piperidin-4-yl)-1H-imidazol-5-yl)imidazo[1,2-b]pyridazin-2-yl)-2-fluoroisonicotinamide] are 2.28 nM and 19.1 nM.
For `O=C(Nc1cn2nc(-c3c(-c4ccc(F)cc4)nc(C4CC4)n3C3CCN(CCC(F)(F)F)CC3)ccc2n1)c1ccnc(F)c1` [Compound 130, N-(6-(2-cyclopropyl-4-(4-fluorophenyl)-1-(1-(3,3,3-trifluoropropyl)piperidin-4-yl)-1H-imidazol-5-yl)imidazo [1,2-b]pyridazin-2-yl)-2-fluoroisonicotinamide], the results for the IC50 against CK1δ and against CK1ε were 3.32 nM and 53.3 nM, respectively.
Take `O=C(Nc1cn2nc(-c3c(-c4ccc(F)cc4)nc(C4CC4)n3C3CCN(Cc4ccncc4)CC3)ccc2n1)c1ccnc(F)c1` [Compound 131, N-(6-(2-cyclopropyl-4-(4-fluorophenyl)-1-(1-(pyridin-4-ylmethyl)piperidin-4-yl)-1H-imidazol-5-yl)imidazo [1,2-b]pyridazin-2-yl)-2-fluoroisonicotinamide]: the half-inhibitory concentration (IC50) at CK1δ was 1.97 nM; against CK1ε, 20.7 nM.
In the same order, the values of `O=C(Nc1cn2nc(-c3c(-c4ccc(F)cc4)nc(C4CC4)n3C3CCN(C4COC4)CC3)ccc2n1)c1ccnc(F)c1` [Compound 132, N-(6-(2-cyclopropyl-4-(4-fluorophenyl)-1-(1-(oxetan-3-yl)piperidin-4-yl)-1H-imidazol-5-yl)imidazo[1,2-b]pyridazin-2-yl)-2-fluoroisonicotinamide] are 1.7 nM and 14.2 nM.
Consider `O=C(Nc1cn2nc(-c3c(-c4ccc(F)cc4)nc(C4CC4)n3C3CCN(Cc4ccno4)CC3)ccc2n1)c1ccnc(F)c1` [Compound 133, N-(6-(2-cyclopropyl-4-(4-fluorophenyl)-1-(1-(isoxazol-5-ylmethyl)piperidin-4-yl)-1H-imidazol-5-yl)imidazo [1,2-b]pyridazin-2-yl)-2-fluoroisonicotinamide], for which the IC50 on CK1δ was determined as 0.907 nM; on CK1ε, 13.1 nM.
In the same order, the values of `O=C(Nc1cn2nc(-c3c(-c4ccc(F)cc4)nc(C4CC4)n3C3CCN(CCN4CCOCC4)CC3)ccc2n1)c1ccnc(F)c1` [Compound 134] are 0.542 nM and 7.83 nM.
Taken in the same sequence, the figures for `O=C(Nc1cn2nc(-c3c(-c4ccc(F)cc4)nc(C4CC4)n3C3CCNCC3)ccc2n1)c1cccc(-c2cccnc2)c1` [Compound 135, N-(6-(2-cyclopropyl-4-(4-fluorophenyl)-1-(piperidin-4-yl)-1H-imidazol-5-yl)imidazo[1,2-b]pyridazin-2-yl)-3-(pyridin-3-yl)benzamide] were 0.745 nM and 2.6 nM.
Turning to `N#CCCN1CCC(n2c(C3CC3)nc(-c3ccc(F)cc3)c2-c2ccc3nc(NC(=O)c4cccc(-c5cccnc5)c4)cn3n2)CC1` [Compound 136, N-(6-(1-(1-(2-cyanoethyl)piperidin-4-yl)-2-cyclopropyl-4-(4-fluorophenyl)-1H-imidazol-5-yl)imidazo[1,2-b]pyridazin-2-yl)-3-(pyridin-3-yl)benzamide], the IC50 at CK1δ stood at 0.514 nM; at CK1ε, 8.9 nM.
On to `NCC(=O)N1CCC(n2c(C3CC3)nc(-c3ccc(F)cc3)c2-c2ccc3nc(NC(=O)c4cccc(-c5cccnc5)c4)cn3n2)CC1` [Compound 137, N-(6-(1-(1-(2-aminoacetyl)piperidin-4-yl)-2-cyclopropyl-4-(4-fluorophenyl)-1H-imidazol-5-yl)imidazo[1,2-b]pyridazin-2-yl)-3-(pyridin-3-yl)benzamide], for which the values for the IC50 at CK1δ and at CK1ε were 0.203 nM and 5.78 nM, respectively.
On to `O=C(Nc1cn2nc(-c3c(-c4ccc(F)cc4)nc(C4CC4)n3C3CCN(Cc4ccon4)CC3)ccc2n1)c1cccc(-c2cccnc2)c1` [Compound 138, N-(6-(2-cyclopropyl-4-(4-fluorophenyl)-1-(1-(isoxazol-3-ylmethyl)piperidin-4-yl)-1H-imidazol-5-yl)imidazo[1,2-b]pyridazin-2-yl)-3-(pyridin-3-yl)benzamide], for which the figures for the IC50 against CK1δ and against CK1ε were 1.56 nM and 11 nM, respectively.
